Structures can show the parent of a compound that is named as a salt.
Key:
[1] = target: human alpha1 nicotinic acetylcholine (nACh) receptor (Homo sapiens, UniProt P02708); assay: Nicotinic acetylcholine receptor antagonism assay, IONFlux automated patch clamp (Example 203); assay type: cell-based
Experimental: Cells expressing human alpha1 nicotinic acetylcholine (nACh) receptor (nAChR) were washed and dissociated using Trypsin containing buffer. Cells were then washed and seeded at a density of 3-5 million cells/mL and allowed to grow for 3 days. Then, 60-80 μL of cells were added to plates and incubated with dose response of an ARM compound of Formula (I) with a top concentration of either 10 μM or 100 μM. The receptor was then stimulated via addition of acetylcholine (ACh) and activation of the receptor was monitored via the IONFlux automated patch clamp system. IonFlux Data Analyzer software was utilized to perform leak subtraction and measure (min) peak current amplitude.
Data processing: (1) Current values recorded for vehicle only applications in individual traps/patterns were subtracted from corresponding current amplitude values for control, test article and control+test article. (2) Control response was calculated as % of the average response of the 3rd out of total 3 ACh (10 mM) applications alone. In rare situations, if the 3rd ACh response was obscured due to technical artifacts, the 2nd and/or 1st ACh (10 mM) application was considered as control. The peak current amplitude generated in the presence of each test article concentration was then used to calculate the % inhibition as compared to control response (10 mM ACh alone). These estimates were further corrected for vehicle response and run down corrected by normalizing with time matched control responses (10 mM ACh alone). The corrected percentages were then fit with a non-linear function in GraphPad Prism 6 (or later versions) to determine the IC50.
Exclusion criteria: (i) any n's with poor recording quality, (ii) control current amplitude <500 pA or (iii) significant outliers, as determined by the Grubbs test.
ARMs compounds of Formula (I) of the invention were tested for antagonism of the nAChR in the above assay in […] experimental runs and the results are shown in Table 7 below. Antagonistic activity of the compounds of Formula (I) of the invention is reported as an IC50 value (half maximal inhibitory concentration) and the maximum percentage antagonism observed at the highest concentration of compound of Formula (I) tested, as indicated in Table 7. For compounds tested in more than one experimental run, the IC50 value is reported as an average

[2] = test system: CCR2 expressing cells (CD11b+Ly6c+Hi) in peripheral blood; assay: In vivo depletion assay, flow cytometry of peripheral blood (Example 201); design: species or system human CCR2 knock-in mice (C57 background); details: hCCR2 knock-in mice, IV 0.1 mpk compound + 10 mpk anti-cotinine antibody (SEQ ID NO: 13/14), peripheral blood at 48 hr
Experimental: Stock solution preparation. Stock solutions of compounds of Formula (I) were prepared at 20 mg/mL and 100 mg/mL in […] for PK/PD and dose tolerability studies respectively. Stock solutions were stored at […] until further usage. on the day of experiment, the stock Solution of the compound of Formula (I) was removed from storage at […] and thawed at room temperature. Anti-cotinine antibody having a heavy chain sequence of SEC ID NO: 13 and a light chain sequence of SEQ ID NO: 14 (rabbit variable region sequence with mouse IgG2a Fc domain), if required was removed from storage at −80° C. and thawed at room temperature. Antibody vials were immediately transferred into wet ice after thawing. Compounds of Formula (I) were further diluted in DMSO as per experimental requirements.
The formulation composition was Saline: DMSI: PBS.
Saline was added based on the quantity required and then stock solution of the compound of Formula (I) prepared in DMSO, followed by addition of antibody in PBS. Formulations were incubated at room temperature for 30 minutes before administration to the mouse. DMSO was used at 1 to % (v/v) in the final formulation.
After bleeding, each mouse was sacrificed by cervical dislocation. […] Flow Cytometry Analysis:
CCR2 depletion in peripheral blood was determined by flow cytometry. Briefly, peripheral blood was collected from all animals at the end of study termination and processed. Blood samples were lysed using 1×RBC Lysis buffer and the resulting cell pellet was washed twice in FACS buffer (HBSS containing 5% FBS). Cells were subjected to Fc blocking using mouse Fc block from Biolegend (Trustain, anti-mouse CD16/32, Cat: 101319) to block non-specific binding followed by surface staining for immune markers (CD45, CD3, CD11 b, Ly6C, human CCR2). Surface staining was done for 30 minutes in ice and cells were washed twice to remove unbound antibodies. Cells were stained with 7AAD to determine viability and acquired on BD FACSVerse flow cytometer. Appropriate FMO controls and single-color controls were included in the experiment for gating and compensation respectively.
Percent depletion of CD11 b+Ly6c+Hi cells and CCR2 expression for the different treatment groups was determined.

[3] = test system: endogenous target monocytes in human PBMC; assay: PBMC ex vivo monocyte depletion flow cytometry assay (Example 200); assay type: cell-based; details: with anti-cotinine antibody (SEQ ID NO: 11/12), 18-24 hours, EC50 in molar, read-out: Ex Vivo Depletion Assay pEC50 (converted)
Summary of the method: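 Monocyte depletion is reported as pEC50, averaged or given individually across runs, and read by flow cytometry staining CD45, CD14 and CD4 with a viability dye. Compounds, diluted four-fold over 11 points from 1 mM DMSO stocks, were combined with 30 μg/mL Fc-enhanced anti-cotinine antibody and human PBMC, then incubated 18-24 h at 37° C.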

human alpha1 nicotinic acetylcholine (nACh) receptor, sequence (P02708 21-457): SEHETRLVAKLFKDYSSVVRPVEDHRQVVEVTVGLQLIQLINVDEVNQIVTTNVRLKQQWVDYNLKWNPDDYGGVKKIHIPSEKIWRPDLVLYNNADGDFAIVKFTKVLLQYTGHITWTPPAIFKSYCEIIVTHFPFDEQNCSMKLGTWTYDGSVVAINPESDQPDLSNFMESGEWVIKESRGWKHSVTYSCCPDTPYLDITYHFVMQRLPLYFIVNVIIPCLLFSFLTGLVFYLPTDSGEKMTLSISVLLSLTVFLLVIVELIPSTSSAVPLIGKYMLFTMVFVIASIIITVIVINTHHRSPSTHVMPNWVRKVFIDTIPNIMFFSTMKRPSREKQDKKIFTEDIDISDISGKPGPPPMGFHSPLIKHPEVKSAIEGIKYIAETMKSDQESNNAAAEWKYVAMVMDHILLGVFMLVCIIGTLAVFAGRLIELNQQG
human alpha1 nicotinic acetylcholine (nACh) receptor, sequence (P11230 24-501 partner): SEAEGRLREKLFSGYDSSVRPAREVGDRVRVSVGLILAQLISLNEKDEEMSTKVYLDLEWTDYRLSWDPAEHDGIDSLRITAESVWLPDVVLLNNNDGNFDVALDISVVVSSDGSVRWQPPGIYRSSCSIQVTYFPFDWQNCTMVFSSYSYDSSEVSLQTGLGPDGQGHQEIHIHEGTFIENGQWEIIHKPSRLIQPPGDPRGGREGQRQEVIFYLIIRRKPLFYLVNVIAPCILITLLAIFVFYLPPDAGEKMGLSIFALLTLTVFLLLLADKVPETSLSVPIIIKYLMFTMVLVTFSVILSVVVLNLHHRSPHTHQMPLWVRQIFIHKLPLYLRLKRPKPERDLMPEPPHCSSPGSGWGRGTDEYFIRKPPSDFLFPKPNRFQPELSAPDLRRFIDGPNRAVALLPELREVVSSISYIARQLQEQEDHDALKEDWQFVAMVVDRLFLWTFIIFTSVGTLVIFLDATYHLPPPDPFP
human alpha1 nicotinic acetylcholine (nACh) receptor, sequence (Q07001 22-517 partner): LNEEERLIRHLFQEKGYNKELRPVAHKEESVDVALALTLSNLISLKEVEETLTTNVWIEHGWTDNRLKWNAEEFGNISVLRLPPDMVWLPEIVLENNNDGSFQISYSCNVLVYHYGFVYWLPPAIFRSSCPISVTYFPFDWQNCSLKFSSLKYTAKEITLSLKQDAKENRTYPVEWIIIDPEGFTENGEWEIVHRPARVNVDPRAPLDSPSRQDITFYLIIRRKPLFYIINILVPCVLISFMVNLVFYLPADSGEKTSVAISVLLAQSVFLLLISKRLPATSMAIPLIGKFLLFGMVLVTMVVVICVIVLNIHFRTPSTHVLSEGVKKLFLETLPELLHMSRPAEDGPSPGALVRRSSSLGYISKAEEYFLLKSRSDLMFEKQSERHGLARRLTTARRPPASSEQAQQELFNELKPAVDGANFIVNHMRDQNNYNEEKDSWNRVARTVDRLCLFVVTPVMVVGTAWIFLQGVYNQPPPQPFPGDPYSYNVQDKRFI

CC(C)N(C)[C@@H]1CC[C@H](N2CC[C@H](Nc3ncnc4ccc(C(F)(F)F)cc34)C2=O)[C@H](NC(=O)[C@H]2C[C@@H](NC(=O)CCCO[C@H]3CC[C@H](OCCNC(=O)[C@H]4CC(=O)N(C)[C@@H]4c4cccnc4)CC3)C2)C1 [Example 9, (2S,3S)-N-(2-(((1S,4S)-4-(4-(((1S,3S)-3-(((1R,2S,5R)-5-(Isopropyl(methyl)amino)-2-((S)-2-oxo-3-((6-(trifluoromethyl)quinazolin-4-yl)amino)pyrrolidin-1-yl)cyclohexyl)carbamoyl)cyclobutyl)amino)-4-oxobutoxy)cyclohexyl)oxy)ethyl)-1-methyl-5-oxo-2-(pyridin-3-yl)pyrrolidine-3-carboxamide]
IC50 ([1]; antagonism of ACh-stimulated human alpha1 nAChR current, patch clamp): 82000 nM
Emax at 100 µM ([1]; maximum percentage antagonism at maximum concentration tested 100 μM, read-out: Maximum Response): 53.9%

CCN1C(=O)C[C@H](C(=O)NCCO[C@H]2CC[C@H](OCCCC(=O)N[C@H]3CC[C@H](C(=O)N[C@@H]4C[C@H](N(C)C(C)C)CC[C@@H]4N4CC[C@H](Nc5ncnc6ccc(C(F)(F)F)cc56)C4=O)CC3)CC2)[C@H]1c1cccnc1 [Example 11, (2S,3S)-1-ethyl-N-(2-(((1,4-trans)-4-(4-(((1,4-trans)-4-(((1R,2S,5R)-5-(isopropyl(methyl)amino)-2-((S)-2-oxo-3-((6-(trifluoromethyl)quinazolin-4-yl)amino)pyrrolidin-1-yl)cyclohexyl)carbamoyl)cyclohexyl)amino)-4-oxobutoxy)cyclohexyl)oxy)ethyl)-5-oxo-2-(pyridin-3-yl)pyrrolidine-3-carboxamide]
% Depletion of CCR2 expressing cells [2]: 91.57%

CC(C)N(C)[C@@H]1CC[C@H](N2CC[C@H](Nc3ncnc4ccc(C(F)(F)F)cc34)C2=O)[C@H](NC(=O)[C@H]2CC[C@H](NC(=O)CCCO[C@H]3CC[C@H](OCCNC(=O)[C@H]4CC(=O)N(C5CCC5)[C@@H]4c4cccnc4)CC3)CC2)C1 [Example 14, (2S,3S)-1-cyclobutyl-N-(2-(((trans)-4-(4-(((trans)-4-(((1R,2S,5R)-5-(isopropyl(methyl)amino)-2-((S)-2-oxo-3-((6-(trifluoromethyl)quinazolin-4-yl)amino)pyrrolidin-1-yl)cyclohexyl)carbamoyl)cyclohexyl)amino)-4-oxobutoxy)cyclohexyl)oxy)ethyl)-5-oxo-2-(pyridin-3-yl)pyrrolidine-3-carboxamide]
% Depletion of CCR2 expressing cells [2]: 47.24%

CC(C)N(C)[C@@H]1CC[C@H](N2CC[C@H](Nc3ncnc4ccc(C(F)(F)F)cc34)C2=O)[C@H](NC(=O)[C@H]2CC[C@H](C3CCN(CCOCCOCCNC(=O)[C@H]4CC(=O)N(C)[C@@H]4c4cccnc4)CC3)CC2)C1 [Example 189, (2S,3S)-N-(2-(2-(2-(4-((1R,4r)-4-(((1R,2S,5R)-5-(Isopropyl(methyl)amino)-2-((S)-2-oxo-3-((6-(trifluoromethyl)quinazolin-4-yl)amino)pyrrolidin-1-yl)cyclohexyl)carbamoyl)cyclohexyl)piperidin-1-yl)ethoxy)ethoxy)ethyl)-1-methyl-5-oxo-2-(pyridin-3-yl)pyrrolidine-3-carboxamide]
EC50 [3]: 7.94 nM

CC(C)N(C)[C@@H]1CC[C@H](N2CC[C@H](Nc3ncnc4ccc(C(F)(F)F)cc34)C2=O)[C@H](NC(=O)[C@H]2CC[C@H](N3CCN(CCOCCOCCNC(=O)[C@H]4CC(=O)N(C)[C@@H]4c4cccnc4)CC3)CC2)C1 [Example 190, (2S,3S)-N-(2-(2-(2-(4-((1R,4r)-4-(((1R,2S,5R)-5-(isopropyl(methyl)amino)-2-((S)-2-oxo-3-((6-(trifluoromethyl)quinazolin-4-yl)amino)pyrrolidin-1-yl)cyclohexyl)carbamoyl)cyclohexyl)piperazin-1-yl)ethoxy)ethoxy)ethyl)-1-methyl-5-oxo-2-(pyridin-3-yl)pyrrolidine-3-carboxamide]
EC50 [3]: 3.16 nM

CC(C)N(C)[C@@H]1CC[C@H](N2CC[C@H](Nc3ncnc4ccc(C(F)(F)F)cc34)C2=O)[C@H](NC(=O)[C@H]2CC[C@@H](NC(=O)CCCOCCCOCCCNC(=O)[C@H]3CC(=O)N(C)[C@@H]3c3cccnc3)CC2)C1 [Example 193, (2S,3S)-N-(3-(3-(4-(((1S,4s)-4-(((1R,2S,5R)-5-(Isopropyl(methyl)amino)-2-((S)-2-oxo-3-((6-(trifluoromethyl)quinazolin-4-yl)amino)pyrrolidin-1-yl)cyclohexyl)carbamoyl)cyclohexyl)amino)-4-oxobutoxy)propoxy)propyl)-1-methyl-5-oxo-2-(pyridin-3-yl)pyrrolidine-3-carboxamide]
EC50 [3]: 0.2 nM

CC(C)N(C)[C@@H]1CC[C@H](N2CC[C@H](Nc3ncnc4ccc(C(F)(F)F)cc34)C2=O)[C@H](NC(=O)CCCCCCCCNCCOCCOCCOCCOCCNC(=O)[C@H]2CC(=O)N(C)[C@@H]2c2cccnc2)C1 [Example 195, (2S,3S)-N-(24-(((1R,2S,5R)-5-(Isopropyl(methyl)amino)-2-((S)-2-oxo-3-((6-(trifluoromethyl)quinazolin-4-yl)amino)pyrrolidin-1-yl)cyclohexyl)amino)-24-oxo-3,6,9,12-tetraoxa-15-azatetracosyl)-1-methyl-5-oxo-2-(pyridin-3-yl)pyrrolidine-3-carboxamide, 3Trifluoroacetic acid salt]
EC50 [3]: 0.316 nM

CC(C)N(C)[C@@H]1CC[C@H](N2CC[C@H](Nc3ncnc4ccc(C(F)(F)F)cc34)C2=O)[C@H](NC(=O)CCCCCCCCNCCCCCCCCCCNC(=O)[C@H]2CC(=O)N(C)[C@@H]2c2cccnc2)C1 [Example 196, (2S,3S)-N-(10-((9-(((1R,2S,5R)-5-(Isopropyl(methyl)amino)-2-((S)-2-oxo-3-((6-(trifluoromethyl)quinazolin-4-yl)amino)pyrrolidin-1-yl)cyclohexyl)amino)-9-oxononyl)amino)decyl)-1-methyl-5-oxo-2-(pyridin-3-yl)pyrrolidine-3-carboxamide, 3Formic acid salt.]
EC50 [3]: 0.2 nM

CC(C)N(C)[C@@H]1CC[C@H](N2CC[C@H](Nc3ncnc4ccc(C(F)(F)F)cc34)C2=O)[C@H](NC(=O)[C@H]2CC[C@@H](NC(=O)CCOCCCOCCCNC(=O)[C@H]3CC(=O)N(C)[C@@H]3c3cccnc3)CC2)C1 [Example 197, (2S,3S)-N-(3-(3-(3-(((1S,4s)-4-(((1R,2S,5R)-5-(Isopropyl(methyl)amino)-2-((S)-2-oxo-3-((6-(trifluoromethyl)quinazolin-4-yl)amino)pyrrolidin-1-yl)cyclohexyl)carbamoyl)cyclohexyl)amino)-3-oxopropoxy)propoxy)propyl)-1-methyl-5-oxo-2-(pyridin-3-yl)pyrrolidine-3-carboxamide]
EC50 [3]: 1 nM

— patent publication US12521393B2, “Cytotoxicity targeting chimeras for CCR2-expressing cells” (GLAXOSMITHKLINE INTELLECTUAL PROPERTY DEVELOPMENT LIMITED, priority 2021, dated 2026)
